The subject of the experiment is OS-RC-2. Put plainly: cells. The settings on record: Homo sapiens, OS-RC-2, 48 h.

Description: Antiproliferative activity against human OS-RC-2 cells assessed as inhibition of cell growth incubated for 48 hrs

Broadly, the IC50 is the concentration needed to halve the response being measured. In the case of `CNC(=O)c1cc(Oc2ccc(NC(=O)Nc3ccc(Cl)c(C(F)(F)F)c3)cc2)ccn1` [SORAFENIB], the IC50 was around 9 µM.

Values taken from ChEMBL document CHEMBL5543100 (Eur J Med Chem, 2024).
